Legend:
[1] = tested on: Potatoes from the variety Bintje, Innovator and Nicola; assay: Fresh sprout weight of stored potatoes treated by fogging (Example 7); type: in vivo, Solanum tuberosum; settings: Treatment at 50 ml/ton, corresponding to 450 g limonene/ton or 450 ppm
Procedure: Potatoes were treated with 100% orange oil every 3 weeks via application by cold fogging using a potato mist blower VEUGEN in the above part of a storage cell between bag fillings and the top of the cell.
Potatoes from the variety Bintje, Innovator and Nicola were stored in a storage room and each storage room (trail number) was treated with a different product in the anti-sprouting treatment. BIO-024 stands for Orange oil, with at least 900 g limonene/1, BIOX M is a trade name of a mint oil based product that is commercially available as an anti-sprouting agent, Gro Stop fog is a trade name of a CIPC containing product for the treatment of sprouting of potatoes.
An overview of the fresh sprout weight and the weight loss of samples that were taken on 11 February, 11 March, 8 April and 6 May is given in Table 6. […] Storage was carried out from 11 October until 16 May the year after, all products were applied by fogging.
Fresh sprout weight was assessed by weighing all sprouts per sample. Sprout weight was calculated for a standard sized sample of 1.0 kg potatoes: Fresh sprout weight(g)=fresh sprout weight sample/(weight sample unloading−sprouts)

potatoes [2] = settings: WO 92/10934, cited from earlier work
[3] = tested on: potatoes (Bintje and Innovator); assay: Tuber treatment in cabins, sprout formation (Example 2); type: in vivo, Solanum tuberosum; settings: 600 EC limonene composition, 90 ml/1000 kg then 30 or 90 ml/1000 kg every 3 weeks, fogging
Procedure: In a second example, use of a 600 EC limonene composition according to example 1 the treatment of potatoes is illustrated.
In this example, 10 equal amounts of potatoes (20 kg Bintje and 20 kg Innovator) were treated in 5 different cabins. The first cabin acted as a control. No treating agent was applied in the first cabin.
In cabin 4, a composition according to example 1 was used, with limonene as active ingredient. The first application was done 2 weeks after harvesting at a concentration of 90 ml/1000 kg potatoes. After this application, the next applications were at a dose of 30 ml/1000 kg potatoes.
In cabin 5, the same composition as used in cabin 4 was used with 600 g/l limonene as active ingredient. The first application was done 2 weeks after harvesting at a concentration of 90 ml/1000 kg potatoes. Every 3 weeks the application was repeated at the same dose.
For all the cabins, the first treatment was on 22 October, 2 weeks after harvest. The potatoes were investigated for sprout formation at February 5, the next year, March 4, and April, 4. For each amount of potatoes the weight loss was determined, the sprout index was determined and the sprout weight was measured.
The sprout weight expressed in grams of the “Innovator”-variety potatoes is depicted in FIG. 3 for each cabin and at the 3 different times, corresponding to around 4, 5 and 6 months after harvest.

potatoes [4] = settings: 45 g/ton at start and 15 g/ton every 20 days, after 5 months, WO 00/32063, cited from earlier work

In the case of `C=C(C)[C@H]1CC=C(C)CC1` [limonene], the “effectiveness to reach the levels of control obtainable by CIPC or mint oil” value [1] is given as “not sufficiently effective”, the “influence on potato sprouting” value (potatoes [2]; headspace concentration of 1.70 mg/L after 7 days) is given as “did not have an influence on potato sprouting” and the eyes with sprouts (potatoes [2]; three unsprouted potatoes exposed to a 2 ml limonene soaked filter paper in a desiccator flask) is given as 0%. For the same compound, the “effectiveness as treatment agent on its own (sprout formation)” value [3] was “sufficient effectiveness”, the weight loss (potatoes [4]; 60 wt % limonene composition, untreated control 5.4%) was 4.5% and the sprout growth (potatoes [4]; limonene as 60 wt % composition, untreated control 100%) was 96.8%.

Source: patent publication US11632963B2, “Tuber storage” (Arysta Lifescience Benelux Sprl, priority 2014, dated 2023)
